{
  "source": "patent US20250114431A1",
  "about": "“COMPOUND, COMPOSITION AND METHODS FOR LOWERING CIRCULATING GLUCOSE” (THE HONG KONG POLYTECHNIC UNIVERSITY, priority 2023, published 2025)",
  "tested_on": "MIN6 pancreatic beta cells",
  "test": "Glucose stimulated insulin secretion assay in MIN6 cells (mouse insulin ELISA)",
  "assay_type": "cell-based",
  "conditions": "100 nM, positive control; FIG. 5A",
  "method": "To verify that the glucose homeostasis is regulated through liver or hepatocytes by overexpression of Plac9 in an insulin-independent manner, an in vitro insulin secretion assay was performed on confluent pancreatic beta cells, MIN6, in each well treated by […] of Exendin-4 or different concentrations of recombinant Plac9 of mouse origin at 10, 100 and 1000 nM (n=8) and measured the insulin content of each well by a mouse insulin ELISA kit. […] A glucose uptake assay was performed on primary hepatocytes and hepatic cell line, HepG2, treated with different concentrations (from 0.125 or 0.25 to 1.0 μM) in the presence or absence of exogenous 10 nM insulin, and the results are shown in FIGS. 5B and 5C, respectively.",
  "data": [
    {"substance": "Exendin-4 [reference compound]", "values": [
      {"measurement": "insulin secretion", "result": "significantly induces insulin secretion"}
    ]}
  ]
}
